Read-outs that look alike come from different tables or passages of the source.
Tests used:
MCF-7 cells = test: XTT cell viability, MCF-7 cells; assay type: cell-based, human; settings: for IC50: Homo sapiens, MCF7, 48 h, 48 h, XTT, 5 experiments
Experimental: (§1) Human pancreatic cancer cells BxPC-3, Panc-1, non-transformed human mammary epithelial MCF-10A cells, and human breast cancer cells MCF-7 and MDA-MB-468 were obtained from the American Type Culture Collection (ATCC, Manassas, VA, USA). The cells were then cultured as previously described ([6], [9], [11]). All cells were used within 20 passages of thawing and were free of mycoplasma contamination as ascertained by mycoplasma PCR detection ([12]).
(§2) Cell metabolic activity was assayed as described ([14]) by estimating the reduction of XTT (2,3-bis(2-methoxy-4-nitro-5-sulfophenyl)-2H-tetrazolium-5-carboxyanilide), using a commercially available kit (Cell Signaling Technology, Danvers, MA, USA) according to the manufacturer’s instructions. Metabolic activity was used as a surrogate for viability. For each set of experimental groups, we performed 5 experiments with 4 replicates. Caspase-3-like activity is increased through a protease cascade during the early stage of apoptosis ([15]), and we measured activities of Caspase 3/7 (DEVDase) using the caspase fluorogenic substrate (Calbiochem, San Diego, CA, USA) as described ([9]).
(§3) Results are presented as mean ± standard deviation (SD). The IC50 values for Dox in cell viability studies were calculated by GraphPad Prism. Statistical comparisons were made with a Mann–Whitney test, ANOVA, and repeated-measure ANOVA with Geisser–Greenhouse epsilon correction. p < 0.05 was considered statistically significant.
(§4) We examined if displacement of WT FXYD3 from Na^+/K^+-ATPase is reflected in viability of cells exposed to FXYD3-pep SKSK with and without co-exposure to Dox for 48 h. The culture medium that contained FXYD3-pep SKSK and Dox was replaced with fresh medium every 24 h.

BxPC-3 cells = test: XTT cell viability, BxPC-3 cells; assay type: cell-based; settings: Homo sapiens, BXPC-3, 48 h, 5 experiments
Experimental: as §1, §2, §3, §4

SMILES	Effect of ouabain on Dox-induced cytotoxicity (MCF-7 cells; 48-h co-exposure with 1 μM Dox, N = 5)	Effect of ouabain alone on cell viability (MCF-7 cells; 48-h exposure, ouabain 25-150 nM, N = 5)	IC50 (MCF-7 cells; Dox alone (no peptide)) [nM]	IC50 (MCF-7 cells; co-exposure to 2 µM FXYD3-pep SKSK, read-out: IC50 for Dox, cell viability) [nM]	IC50 (BxPC-3 cells; Dox alone (no peptide)) [nM]	IC50 (BxPC-3 cells; co-exposure to 1 μM FXYD3-pep SKSK, read-out: IC50 for Dox, cell viability) [nM]	IC50 (BxPC-3 cells; co-exposure to 2 μM FXYD3-pep SKSK, read-out: IC50 for Dox, cell viability) [nM]
C[C@@H]1O[C@@H](O[C@H]2C[C@@H](O)[C@]3(CO)[C@H]4[C@H](O)C[C@]5(C)[C@@H](C6=CC(=O)OC6)CC[C@]5(O)[C@@H]4CC[C@]3(O)C2)[C@H](O)[C@H](O)[C@H]1O [ouabain]	modest augmentation of Dox-induced cytotoxicity decreased with an increase in ouabain concentration	reduced cell viability in a concentration-dependent manner					
COc1cccc2c1C(=O)c1c(O)c3c(c(O)c1C2=O)C[C@@](O)(C(=O)CO)C[C@@H]3O[C@H]1C[C@H](N)[C@H](O)[C@H](C)O1 [Dox, doxorubicin]			~4300	~500	~1740	~400	~300

From PMC8968713, “Displacement of Native FXYD Protein From Na^+/K^+-ATPase With Novel FXYD Peptide Derivatives: Effects on Doxorubicin Cytotoxicity” (Frontiers in Oncology, 2022)
